# Source: patent US11141413B2, “Method of treating renal cell carcinoma using N-(4-(6,7-dimethoxyquinolin-4-yloxy)phenyl)-N′-(4-fluorophenyl)cyclopropane-1,1-dicarboxamide, (2S)-hydroxybutanedioate” (Exelixis, Inc., priority 2016, dated 2021)
# Where “and” joins values, the source holds several entries; their conditions need not be identical. Identical values can stand only once.
# Assays:
# [1] = tested on: advanced renal cell carcinoma (RCC); experiment: METEOR (Study 1) randomized phase 3 trial, cabozantinib vs everolimus: PFS, OS, ORR; assay type: in vivo, human; details: for PFS event: all randomized
# RET = RET (Homo sapiens, UniProt P07949); experiment: In vitro biochemical and/or cellular kinase assays
# male and female rats = details: rat, in vivo
# pregnant rats = experiment: Embryo-fetal development study in pregnant rats
# CYP2E1 = CYP2E1 (Homo sapiens, UniProt P05181); experiment: Metabolic pathways in vitro: effect of CYP inhibition on cabozantinib metabolite formation; assay type: in vitro ADME
# [2] = all 658 randomized, per IRC, cutoff May 22, 2015
# [3] = earlier cutoff at 247 events in the ITT Pop (traditional design)
# [4] = high tumor burden (≥median SoD)
# [5] = patients with bone and visceral metastases
# [6] = patients with visceral (lung or liver) metastases
# [7] = pazopanib only prior VEGFR TKI subgroup
# [8] = prior therapy subgroup Anti-PD-1/PD-L1
# [9] = prior therapy subgroup Pazopanib Only
# [10] = prior therapy subgroup Sunitinib Only
# [11] = sunitinib only prior VEGFR TKI subgroup
# Sequence of CYP2E1 (P05181 whole entry): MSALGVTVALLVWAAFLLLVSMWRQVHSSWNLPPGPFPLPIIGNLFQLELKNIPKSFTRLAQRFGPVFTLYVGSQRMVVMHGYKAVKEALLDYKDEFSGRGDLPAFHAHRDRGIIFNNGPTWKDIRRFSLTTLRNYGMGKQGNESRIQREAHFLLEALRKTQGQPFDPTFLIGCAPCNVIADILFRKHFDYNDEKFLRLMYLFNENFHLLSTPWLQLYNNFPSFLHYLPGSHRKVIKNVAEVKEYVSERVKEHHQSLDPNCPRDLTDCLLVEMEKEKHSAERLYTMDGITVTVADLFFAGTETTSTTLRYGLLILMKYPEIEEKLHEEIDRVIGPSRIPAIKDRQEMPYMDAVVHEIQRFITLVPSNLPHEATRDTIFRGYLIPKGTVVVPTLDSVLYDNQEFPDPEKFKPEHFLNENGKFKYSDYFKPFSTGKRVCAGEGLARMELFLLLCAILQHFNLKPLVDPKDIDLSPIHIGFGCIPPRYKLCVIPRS
# Sequence of RET (P07949 29-1114): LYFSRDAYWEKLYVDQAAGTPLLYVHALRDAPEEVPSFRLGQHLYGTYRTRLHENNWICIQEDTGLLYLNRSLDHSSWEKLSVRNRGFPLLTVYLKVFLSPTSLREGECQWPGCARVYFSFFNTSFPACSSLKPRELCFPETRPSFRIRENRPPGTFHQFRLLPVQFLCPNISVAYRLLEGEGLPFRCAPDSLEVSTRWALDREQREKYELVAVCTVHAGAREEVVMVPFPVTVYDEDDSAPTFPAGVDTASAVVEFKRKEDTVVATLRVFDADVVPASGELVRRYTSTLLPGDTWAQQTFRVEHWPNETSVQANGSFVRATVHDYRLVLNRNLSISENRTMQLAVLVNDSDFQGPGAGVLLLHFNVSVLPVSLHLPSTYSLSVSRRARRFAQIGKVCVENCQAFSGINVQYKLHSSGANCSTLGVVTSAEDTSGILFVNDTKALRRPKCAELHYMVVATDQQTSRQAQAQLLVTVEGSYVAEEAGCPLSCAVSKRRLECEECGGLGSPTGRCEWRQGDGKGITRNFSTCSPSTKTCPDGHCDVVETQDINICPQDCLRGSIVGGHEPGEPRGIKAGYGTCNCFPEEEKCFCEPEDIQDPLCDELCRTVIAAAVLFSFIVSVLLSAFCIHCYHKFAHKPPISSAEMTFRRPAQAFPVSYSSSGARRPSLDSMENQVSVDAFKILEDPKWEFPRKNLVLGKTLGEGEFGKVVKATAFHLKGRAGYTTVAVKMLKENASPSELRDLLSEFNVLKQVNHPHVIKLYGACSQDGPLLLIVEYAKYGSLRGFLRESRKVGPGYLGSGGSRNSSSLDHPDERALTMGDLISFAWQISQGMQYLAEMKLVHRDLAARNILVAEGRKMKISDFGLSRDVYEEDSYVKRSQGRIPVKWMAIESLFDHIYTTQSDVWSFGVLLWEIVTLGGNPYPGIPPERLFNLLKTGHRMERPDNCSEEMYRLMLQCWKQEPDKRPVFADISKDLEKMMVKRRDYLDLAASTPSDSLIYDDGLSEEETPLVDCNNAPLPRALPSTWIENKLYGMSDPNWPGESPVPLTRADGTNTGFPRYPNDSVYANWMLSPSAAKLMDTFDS
smiles,measurement,setting,value
COc1cc2nccc(Oc3ccc(NC(=O)C4(C(=O)Nc5ccc(F)cc5)CC4)cc3)c2cc1OC [cabozantinib],Median duration of PFS,[1]; [2],7.4 months
same,"PFS HR, cabozantinib vs everolimus",[1]; [2],0.51 and 0.52
same,Median duration of PFS,"[1]; all 658 randomized, per IRC, cutoff May 22, 2015, listed as Cabozantinib",7.4 (6.6-9.1) months and 7.4 months
same,"PFS HR, cabozantinib vs everolimus","[1]; all 658 randomized, per investigator",0.54
same,Median duration of PFS,"[1]; all 658 randomized, per investigator, cutoff May 22, 2015",7.4 (7.3-7.8) months
same,"PFS HR, cabozantinib vs everolimus","[1]; all 658 randomized, per investigator, listed as Cabozantinib",0.54 (0.45-0.66)
same,PFS event,"[1]; per IRC, cutoff May 22, 2015",180 (55) ^ n (%)
same,PFS event,"[1]; per investigator, cutoff May 22, 2015",196 (59) ^ n (%)
same,"Median PFS, alternative analysis",[1]; [3],6 mo
same,"PFS HR, alternative analysis",[1]; [3],0.49 and 0.48
same,Median PFS,"[1]; first 375 randomized, per independent radiology review committee (IRC)",7.4 months
same,Median OS,[1]; high MET tumor expression,22.0 months
same,"OS HR, cabozantinib vs everolimus",[1]; high MET tumor expression,0.55
same,Median OS,[1]; high tumor burden,18.1 mo
same,"OS HR, cabozantinib vs eve",[1]; [4],0.60
same,"PFS HR, cabozantinib vs eve",[1]; [4],0.41
same,Patients with reduction in measurable tumor lesion size,[1]; in vivo,75%
same,Median OS,[1]; low MET tumor expression,20.8 months
same,"OS HR, cabozantinib vs everolimus",[1]; low MET tumor expression,0.72
same,Median OS,[1]; low tumor burden,22.0 mo
same,"OS HR, cabozantinib vs eve",[1]; low tumor burden (<median SoD),0.76
same,"PFS HR, cabozantinib vs eve",[1]; low tumor burden (<median SoD),0.63
same,Median OS,[1]; patients enrolled in Canada,20.8 mo
same,Median PFS,[1]; patients enrolled in Canada,7.4 mo
same,ORR,[1]; patients enrolled in Canada,17%
same,"OS HR, cabo vs eve",[1]; patients enrolled in Canada,0.33
same,"PFS HR, cabo vs eve",[1]; patients enrolled in Canada,0.40
same,"PFS HR, cabozantinib vs everolimus",[1]; patients with bone + visceral metastases,0.26
same,Median PFS,[1]; [5],5.6 mo
same,ORR,[1]; [5],20%
same,"OS HR, cabozantinib vs everolimus",[1]; [5],0.45
same,Median PFS,[1]; patients with bone metastases,7.4 mo
same,ORR,[1]; patients with bone metastases,17%
same,"OS HR, cabozantinib vs everolimus",[1]; patients with bone metastases,0.54
same,"PFS HR, cabozantinib vs everolimus",[1]; patients with bone metastases at baseline,0.33
same,"OS HR, cabozantinib vs eve",[1]; [6],0.66
same,"PFS HR, cabozantinib vs eve",[1]; [6],0.48
same,"OS HR, cabozantinib vs everolimus",[1]; pazopanib as only prior VEGFR TKI,0.66
same,Median OS,[1]; [7],22.0 months
same,Median PFS,[1]; [7],7.4 months
same,Best overall response: confirmed complete response,[1]; per IRC,0 n
same,Best overall response: confirmed partial response,[1]; per IRC,57 n
same,Best overall response: confirmed complete response,[1]; per investigator,0 n
same,"Confirmed ORR (95% CI), tumor response by IRC",[1]; [8],22 (6-48) %
same,"Confirmed ORR (95% CI), tumor response by investigator",[1]; [8],22 (6-48) %
same,"Progressive disease, tumor response by IRC",[1]; [8],11%
same,"Progressive disease, tumor response by investigator",[1]; [8],11%
same,"Stable disease, tumor response by IRC",[1]; [8],50%
same,"Stable disease, tumor response by investigator",[1]; [8],56%
same,"Confirmed ORR (95% CI), tumor response by IRC",[1]; [9],19 (12-29) %
same,"Confirmed ORR (95% CI), tumor response by investigator",[1]; [9],31 (21-41) %
same,"Progressive disease, tumor response by IRC",[1]; [9],14%
same,"Progressive disease, tumor response by investigator",[1]; [9],3%
same,"Stable disease, tumor response by IRC",[1]; [9],65%
same,"Stable disease, tumor response by investigator",[1]; [9],64%
same,"Confirmed ORR (95% CI), tumor response by IRC",[1]; [10],16 (11-24) %
same,"Confirmed ORR (95% CI), tumor response by investigator",[1]; [10],23 (16-31) %
same,"Progressive disease, tumor response by IRC",[1]; [10],12%
same,"Progressive disease, tumor response by investigator",[1]; [10],11%
same,"Stable disease, tumor response by IRC",[1]; [10],66%
same,"Stable disease, tumor response by investigator",[1]; [10],60%
same,ORR,[1]; region Asia Pacific (AP),28%
same,"OS HR, cabozantinib vs eve",[1]; region Asia Pacific (AP),0.49
same,"PFS HR, cabozantinib vs eve",[1]; region Asia Pacific (AP),0.43
same,ORR,[1]; region Europe (EU),15%
same,"OS HR, cabozantinib vs eve",[1]; region Europe (EU),0.67
same,"PFS HR, cabozantinib vs eve",[1]; region Europe (EU),0.54
same,ORR,[1]; region North America (NA),16%
same,"OS HR, cabozantinib vs eve",[1]; region North America (NA),0.79
same,"PFS HR, cabozantinib vs eve",[1]; region North America (NA),0.50
same,Deaths,"[1]; second interim analysis of OS, of randomized patients",42%
same,"OS HR, cabozantinib vs everolimus",[1]; sunitinib as only prior VEGFR TKI,0.66
same,Median OS,[1]; [11],21.4 months
same,Median PFS,[1]; [11],9.1 months
same,Inhibition of tyrosine kinase activity,RET,inhibits
same,Doses at which female fertility was significantly reduced,male and female rats; female,≥ 1 mg/kg/day
same,Doses at which male fertility was significantly compromised,male and female rats; male,≥ 2.5 mg/kg/day
same,Dose causing increased embryo-fetal lethality compared to controls,pregnant rats; daily oral administration throughout organogenesis,0.03 mg/kg
same,Dose with delayed ossification and skeletal variations,"pregnant rats; female, rat, in vivo, 0.1 mg/kg/day",0.1 mg/kg/day
same,Effect of inhibition of CYP2E1 on cabozantinib metabolite formation,CYP2E1,no effect
